In patent JP2007509054A, “血管健康を促進するシリルフェノール” (Amylin Pharmaceuticals LLC, priority 2003, dated 2005):

Key:
[1] = tested on: leukocyte recruitment (白血球動員); assay: Mechanical carotid injury model in ApoE-/- mice: CD45-positive cells / leukocyte recruitment; type: in vivo, mouse; conditions: ApoE-/- male mice, treated 18 h before and daily for 28 days after injury, Fig. 8
carotid artery (頚動脈) = assay: Mechanical carotid injury model in ApoE-/- mice: quantitative morphometry; type: in vivo, mouse; conditions: ApoE-/- male mice, high-fat diet with 1.25% cholesterol, treated 18 h before and daily for 28 days after injury, Fig. 7
[2] = Serum antioxidant activity in rats fed AC3056 in the diet; type: in vivo, rat; conditions: rats fed a diet containing AC3056
serum lipids (血清脂質) = assay: Ex vivo copper-induced lipid peroxidation of serum lipids (lag phase), rabbits fed compound for 70 days; type: in vivo; conditions: rabbit, Fig. 1
[3] = Serum concentration in rats fed AC3056 in the diet; type: in vivo, rat; conditions: rats fed a diet containing AC3056
VCAM-1 (VCAM−1) [4] = assay: IL-4 induced VCAM-1 expression in human coronary artery smooth muscle cells (CASMC); type: cell-based; conditions: IL-4 100 nmol/L, Fig. 2
VCAM-1 (VCAM−1) [5] = assay: Cytokine (TNF-α) induced VCAM-1 expression in human umbilical vein endothelial cells (HUVEC); type: cell-based; conditions: Fig. 2

SMILES	leukocyte recruitment to the neointimal space after vascular injury (CD45-positive cells) [1]	intima/media ratio (carotid artery (頚動脈))	mean lumen thickness (carotid artery (頚動脈))	mean neointimal thickness (carotid artery (頚動脈))	antioxidant activity in serum [2]	increase in lag phase versus serum concentration (serum lipids (血清脂質))	mean serum concentration [3]	inhibition of IL-4 induced VCAM-1 expression (VCAM-1 (VCAM−1) [4])	inhibition of cytokine-induced (TNF-α) VCAM-1 expression (VCAM-1 (VCAM−1) [5])
COc1ccc([Si](C)(C)COc2cc(C(C)(C)C)c(O)c(C(C)(C)C)c2)cc1 [AC3056]	白血球動員を阻害する	内膜/中膜の比が低下する	平均の内腔厚みが増加する	平均の新血管内膜の厚みが低下する	血清中の抗酸化活性の増加	血清濃度に比例する	17700 ng/mL	–	–
CC(C)(Sc1cc(C(C)(C)C)c(O)c(C(C)(C)C)c1)Sc1cc(C(C)(C)C)c(O)c(C(C)(C)C)c1 [プロブコール]	–	–	–	–	–	–	–	本発明の化合物より一般的に有効ではない	同様の濃度範囲にて有効ではない
